Patent US20190388377A1, “COMPOSITIONS AND METHODS FOR THE TREATMENT OF LIVER DISEASES AND DISORDERS” (AXCELLA HEALTH INC., priority 2018, published 2019)

Legend:
[1] = tested on: Human CCL2 (MCP-1); test: MCP1 secretion by ELISA after 24 h, PHH model for NASH, Example 2; type: cell-based; settings: FFA+TNFα
Method: (§1) PHH from two healthy human donors (Lonza, TRL) were seeded on day 0 at density of 6e04 cells in 96 well optical microplates (Thermofisher) in hepatocyte plating media (William's E medium, WEM) (Gibco) supplemented with 10% heat-inactivated FBS (Atlanta Bio), 2 mM Glutamax (Gibco), and 0.2% Primocin (InVivoGen) and incubated for 6 hours at 37° C., 5% CO2. After 6 hours, cells were washed twice and incubated overnight at 37° C., 5% CO2 with Hepatocytes defined medium (Corning) supplemented with 2 mM Glutamax (Gibco), and 1× Penicillin/Streptomycin. On day 1, cells were washed twice and incubated for 24 h in the hepatocyte culture media in the same conditions described above.
(§2) On day 2, cells were washed twice with DPBS 1× (Gibco) to remove excess amino acids and maintained in pretreatment media (1×HMDB, a defined custom amino acid concentration based on the mean physiological concentrations in blood, in WEM±supplemental amino acids): • a. Amino acid-free WEM (US Biologicals) supplemented with 11 mM Glucose (Sigma), 0.272 mM Sodium Pyruvate (Sigma), 1× P/S (Gibco) and containing 1×HMDB with no supplemental amino acids; or • b. The same media described above 1×HMDB WEM with supplemental amino acid and amino acid combination treatments at various concentrations. Cells were maintained in the defined media (a. & b.) for 24 hours at 37° C., 5% CO2. The HMDB values are published in the Human Metabolome Database (Wishart D S, Tzur D, Knox C, et al., HMDB: the Human Metabolome Database. Nucleic Acids Res. 2007 January; 35 (Database issue):D521-6. 17202168; which is hereby incorporated by reference in its entirety). Co-Treatment with Free Fatty Acids and Amino Acids Combination
(§3) After 24 h pre-treatment, cells maintained in the pretreatment media±supplemental amino acids (section (a. & b.) described above) were exposed to free fatty acids (FFA) at 250 uM with a ratio of 2:1 (Oleate:Palmitate) supplemented with TNF-α (Thermofisher) at 1 ng/ml. Cells were incubated with the FFAs mixture (FFAs+TNF-α)±supplemental amino acids treatments for 24 hours at 37° C., 5% CO2. After 24 hours incubation, media was removed for cytokine analysis and replaced by fresh media containing the same conditions described above (FFAs mixture±supplemental amino acids treatments). Cells were incubated for an additional 48 hours for a total of 72 hours of FFA and TNF-α stimulation. After 72 hours of incubation, media was removed for albumin and urea analysis and the cells were fixed for nuclei and lipid staining.
Human CCL2 (MCP-1) was measured by ELISA (Human […] DuoSet ELISA, R&D Systems) at 1/20 dilution in 1× Reagent Diluent (Reagent Ancillary Kit 2, R&D Systems). MCP1 data in primary human hepatocytes treated with FFA+TNFα+supplemental amino acids was normalized to 1×HMDB WEM+FFA+TNFα baseline. Data is reported as median fold change from control, statistical analysis was done using t-Test.

[2] = tested on: primary human hepatocytes; test: Intracellular lipid accumulation after 72 h by fluorescence microscopy, PHH model for NASH, Example 2; type: cell-based; settings: FFA+TNFα; for Lipid Median (median fold change from control): 72 h
Method: as §1, §2, §3
After 72 hours, cells were washed twice in 100 ul PBS 1× (Gibco), fixed with 4% Paraformaldehyde, and washed twice with PBS 1× (100 ul). After fixation, lipids were stained with HCS LipidTOX Red Neutral (Thermofisher Scientific) diluted 1000× and nuclei were stained with Hoechst 3342 (Life Technologies) diluted to 4 ug/ml. The LipidTOX™ neutral lipid stain has an extremely high affinity for neutral lipid droplets that was detected by fluorescence microscopy using a high content imager (Molecular Devices). Data was normalized to the cell concentration determined by nuclei count. Images were analyzed and total lipid area was calculated using granularity module in MetaXpress 6 software. Data is reported as median fold change from control, statistical analysis was done using t-Test.

[3] = tested on: Albumin; test: Albumin secretion after 72 h by ELISA, PHH model, Example 2; type: cell-based, human; settings: FFA+TNFα
Method: as §1, §2, §3
Albumin secretion was measured as a functionality test in primary human hepatocytes. Albumin was measured by ELISA (Human Albumin ELISA Quantitation set, Bethyl Laboratories) at 1/200 dilution in the sample diluent (Bethyl Laboratories). Data is reported as median fold change from control, statistical analysis was done using t-Test.

[4] = tested on: Procollagen III; test: Procollagen III secretion by ELISA, TGFβ1-stimulated hepatic stellate cells, Example 4; type: cell-based, human; settings: HSC, three donors
Method: Primary human hepatic stellate cells were obtained from Samsara Sciences. Cells from three different donors were grown in Complete HSC Medium to ˜80% confluence in T75 or T150 flasks below passage 10 were seeded into sterile, collagen I coated, 96-well optical plastic microplates (ThermoScientific) and incubated overnight at 37° C., 5% CO2 in a humidified incubator in DMEM with 2% Fetal Bovine Serum and 1% Antimycotic. […] After 24 hours of stimulus, supernatant was removed and used to measure Procollagen III and cells were then washed and fixed with 4% paraformaldehyde for further staining. Procollagen III, an important biomarker of fibrosis was measured by ELISA (Human PCIII Elisa Kit, G-Biosciences) following the manufacturer's recommendations. Fixed cells with 4% paraformaldehyde were permeabilized with 0.1% Triton X-100 then immunostained for alpha SMA and labeled for EdU incorporation.

[5] = tested on: Urea; test: Urea production after 72 h by urea nitrogen (BUN) colorimetric assay, PHH model, Example 2; type: cell-based, human; settings: FFA+TNFα
Method: as §1, §2, §3
Urea was measured as an indicator of hepatocytes functionality by urea nitrogen direct assay (StanBio). Cell supernatant was added to the BUN color reagent and BUN acid reagent at 1(color):2(acid) ratio. Incubate the cell supernatant with BUN reagent for 12 min at 100° C. then for 5 min at 4° C. Read absorbance at 520 nm. Data was normalized to the control. Data is reported as median fold change from control, statistical analysis was done using t-Test.

[6] = tested on: alpha smooth muscle actin (αSMA); test: HSC activation by alpha SMA immunostaining, TGFβ1-stimulated hepatic stellate cells; type: cell-based, human
Method: Primary human hepatic stellate cells were obtained from Samsara Sciences. Cells from three different donors were grown in Complete HSC Medium to ˜80% confluence in T75 or T150 flasks below passage 10 were seeded into sterile, collagen I coated, 96-well optical plastic microplates (ThermoScientific) and incubated overnight at 37° C., 5% CO2 in a humidified incubator in DMEM with 2% Fetal Bovine Serum and 1% Antimycotic. […] After 24 hours of stimulus, supernatant was removed and used to measure Procollagen III and cells were then washed and fixed with 4% paraformaldehyde for further staining.
Procollagen III, an important biomarker of fibrosis was measured by ELISA (Human PCIII Elisa Kit, G-Biosciences) following the manufacturer's recommendations. Fixed cells with 4% paraformaldehyde were permeabilized with 0.1% Triton X-100 then immunostained for alpha SMA and labeled for EdU incorporation.
Cells were imaged using ImageXpress micro confocal high content imager (Molecular Devices). […] Image analysis was performed using MetaXpress version 6.2.3.733 (Molecular Devices).
Fixed cells immunostained for alpha smooth muscle actin (αSMA) were analyzed and stained area was normalized to total nuclei count. Fold change were calculated relative to the baseline amino acid (1×HMDB) condition stimulated with 3 ng/mL TGFβ1.

[7] = tested on: primary human hepatocytes; test: Intracellular triglyceride level after 72 h, colorimetric assay, Example 3; type: cell-based
Method: On day 2, cells were washed twice with DPBS 1× (Gibco) and maintained in: • a. Amino acid-free WEM (US Biologicals) supplemented with 11 mM Glucose (Sigma), 0.272 mM Sodium Pyruvate (Sigma), 1× P/S (Gibco) and containing a defined custom amino acid concentration based on the mean physiological concentrations in blood (1× HMDB WEM (−) supplemental amino acids); or • b. The same media described above 1×HMDB WEM (+) supplemental amino acids treatment dose at a 30× of HMDB amino acid concentration. Cells were maintained in the defined amino acids media (a. & b.) for 24 hours at 37° C., 5% CO2. Co-Treatment with Free Fatty Acids and Various Amino Acids Supplemental Treatments
After 24 h pre-treatment, cells maintained in the same media (a. & b.) described above 1×HMDB±supplemental amino acids were now exposed to free fatty acids (FFA) at 250 uM with a ratio of 2:1 (Oleate:Palmitate) supplemented with TNF-α (Thermofisher) at 1 ng/ml or vehicle. Cells with the FFAs+TNFα mixture±amino acids treatments were incubated for 72 hours at 37° C., 5% CO2 with a media change after the first 24 hours.
After 72 hours, cells were washed once with cold PBS 1× (Gibco), scrapped off and collected into 75 ul of standard diluent (Cayman). Collected cells were vortexed for 1 min at a 2500 rpm speed followed by two times sonication (Elmasonic sonicator) for 1 min each. Supernatants were collected for triglyceride analysis after centrifugation at 1000 rpm for 10 min at 4° C. Intracellular triglyceride level was assessed using triglyceride colorimetric assay kit (Cayman) and following manufacturer's recommendations. Data was normalized to the total amount of protein using Bicinchoninic Acid Protein Assay Kit (Sigma). Data is reported as median fold change from FFAs+TNFα condition, statistical analysis was done using t-Test.

Structure (SMILES) | MCP1 secretion (in words) ([1]; hepatocyte donor 1) | Lipid Median (median fold change from control) ([2]; donor 1, AA Conc. 20X) | lipid accumulation (in words) ([2]; hepatocyte donor 1) | albumin secretion (in words) ([3]; hepatocyte donor 1) | procollagen III secretion (in words) [4] | urea production (in words) ([5]; hepatocyte donor 1) | alpha SMA stained area (in words) [6] | Triglyceride Level relative to the baseline FFA + TNF, Median ([7]; FFA + TNF, 72 h, two donors, AA Conc 1X, Nac/Car 0 mM) | triglyceride level (in words) ([7]; FFAs+TNFα, two healthy donors) | MCP1 secretion (in words) ([1]; hepatocyte donor 2) | urea production (in words) ([5]; hepatocyte donor 2) | Lipid Median (median fold change from control) ([2]; donor 1, AA Conc. 25X) | Lipid Median (median fold change from control) ([2]; donor 2, AA Conc. 30X) | lipid accumulation (in words) ([2]; hepatocyte donor 2) | albumin secretion (in words) ([3]; hepatocyte donor 2)
CC(C)[C@H](N)C(=O)O [V, L-Valine] | did not reduce MCP1 secretion | −0.685 | reduced lipid accumulation | decreased albumin production at a higher level than the previously described amino acids | had no impact on procollagen III secretion | – | – | – | – | – | – | – | – | – | –
CC(C)C[C@H](N)C(=O)O [L, L-leucine] | did not reduce MCP1 secretion | −0.725 | reduced lipid accumulation | decreased albumin production at a higher level than the previously described amino acids | had no impact on procollagen III secretion | No changes in urea production | – | – | – | – | – | – | – | – | –
N=C(N)NCCC[C@H](N)C(=O)O [R, L-arginine] | did not reduce MCP1 secretion | – | did not reduce lipid accumulation | did not reduce albumin secretion | had no impact on procollagen III secretion | induced urea production | reduced the alpha SMA stained area | – | – | – | – | – | – | – | –
NC(=O)CC[C@H](N)C(=O)O [Q, L-glutamine] | did not reduce MCP1 secretion | −0.588 | reduced lipid accumulation | decreased albumin production at a higher level than the previously described amino acids | decreased procollagen III secretion but at a lower extent than LIRNacCar and LIRQNacSCar | No changes in urea production | – | – | – | – | – | – | – | – | –
CC[C@H](C)[C@H](N)C(=O)O [I, L-isoleucine] | did not reduce MCP1 secretion | −0.105 | reduced lipid accumulation | did not reduce albumin secretion | had no impact on procollagen III secretion | No changes in urea production | – | – | – | – | – | – | – | – | –
N[C@@H](CO)C(=O)O [S, L-serine] | did not reduce MCP1 secretion | – | reduced lipid accumulation | decreased albumin production at a higher level than the previously described amino acids | had no impact on procollagen III secretion | No changes in urea production | – | −0.176 | didn't have an impact on triglycerides | did not affect MCP1 secretion | slightly induce urea production | −0.178 | −0.42 | reduced lipid accumulation but less than the previously described combinations | reduced albumin secretion
